According to US20220127281A1, “HETEROARYL COMPOUNDS THAT INHIBIT G12C MUTANT RAS PROTEINS” (AstraZeneca AB, priority 2017, published 2022):
Read-outs that look alike come from different tables or passages of the source.

Tests used:
[1] = target: T1, GDP loaded biotinylated KRas^G12C protein (Homo sapiens, UniProt P01116, G12C); experiment: KRasG12C functional assay; assay type: biochemical; details: HTRF FRET readout of SOS-mediated nucleotide exchange and GST-Raf RBD binding, samples incubated for 4 hrs
T1 construct: biotin (biotinylated); made in house
T1 sequence (P01116 1-188 isoform P01116-2 G12C): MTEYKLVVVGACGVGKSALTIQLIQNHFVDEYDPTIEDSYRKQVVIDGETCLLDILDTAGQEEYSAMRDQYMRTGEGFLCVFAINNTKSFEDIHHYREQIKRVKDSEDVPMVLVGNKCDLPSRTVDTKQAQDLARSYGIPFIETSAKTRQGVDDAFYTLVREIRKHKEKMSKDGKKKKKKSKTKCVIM
Summary of the method: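 Biotinylated GDP-loaded KRasG12C exchange driven by 0.08 μM SOS with 0.6 μM GTPγS, read by HTRF between europium and XL665 as active KRas binds 20 nM GST-Raf RBD. Buffer: 20 mM HEPES pH 7.5, 5 mM MgCl2, 150 mM NaCl, 0.01% Tween 20. IC50 from normalised FRET dose-response fits.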

[2] = target: T1, GDP loaded biotinylated KRas^G12C protein; experiment: KRasG12C mass spectrometry adducting assay; assay type: binding; details: test compound final concentration 10 μM, 4 μM KRasG12C, react for 4 hours
Summary of the method: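 Covalent modification quantified as percent adduct: adduct peak area over summed apo plus adduct areas, from MaxEnt1-deconvoluted intact-protein LC–MS spectra. Protein was GDP-bound biotinylated KRasG12C in HEPES pH 7.5 buffer with 5 mM MgCl2 and 150 mM NaCl.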

[3] = read-out: KRasG12C functional assay IC50 value

| IC50 [1, 3] [µM] | KRasG12C M.S. Binding Mean adduct % [2] [%] | SMILES | IC50 ([1]; KRasG12C functional assay IC50 value (μM)) [µM] |
| --- | --- | --- | --- |
| 2.54 | 53 | C=CC(=O)N1CCN2c3ncnc4cc(-c5c(C)cnc6[nH]ncc56)c(Cl)c(c34)OC[C@@H]2C1 [Example 14, 1-[(8aS)-6-Chloro-5-(5-methyl-1H-pyrazolo[3,4-b]pyridin-4-yl)-8a,9,11,12-tetrahydro-pyrazino[2′,1′:3,4][1,4]oxazepino[5,6,7-de]quinazolin-10 (8H)-yl]prop-2-en-1-one] |  |
| 6.91 | 24 | C=CC(=O)N1CCN2c3ncnc4cc(-c5cccc(NC(=O)OC)c5)c(Cl)c(c34)OC[C@@H]2C1 [Example 33, Methyl {3-[(8aS)-10-Acryloyl-6-chloro-8,8a,9,10,11,12-hexahydropyrazino[2′,1′:3,4][1,4]oxazepino[5,6,7-de]quinazolin-5-yl]phenyl}carbamate] |  |
| 3.62 | 51 | C=CC(=O)N1CCN2c3ncnc4cc(-c5cccc6ccc(=O)n(C)c56)c(Cl)c(c34)OC[C@@H]2C1 [Example 44, 8-[(8aS)-10-Acryloyl-6-chloro-8,8a,9,10,11,12-hexahydropyrazino[2′,1′:3,4][1,4]oxazepino[5,6,7-de]quinazolin-5-yl]-1-methylquinolin-2(1H)-one] |  |
| 0.166 | 26 | C=CC(=O)N1CCN2c3ncnc4cc(-c5c(C)ccc6[nH]ncc56)c(Cl)c(c34)OCC[C@@H]2C1 (single isomer, unassigned) [Example 82] |  |
| 1.77 | 34 | C=CC(=O)N1CCN2c3ncnc4cc(-c5cccc6c5oc(=O)n6C)c(Cl)c(c34)OC[C@@H]2C1 [Example 22, 7-[(8aS)-10-Acryloyl-6-chloro-8,8a,9,10,11,12-hexahydropyrazino[2′,1′:3,4][1,4]oxazepino[5,6,7-de]quinazolin-5-yl]-3-methyl-1,3-benzoxazol-2(3H)-one] |  |
| 0.355 | 100 | C=CC(=O)N1CCN2c3ncnc4cc(-c5cccc(F)c5F)c(Cl)c(c34)OC[C@@H]2C1 [Example 62, 1-[(8aS)-6-Chloro-5-(2,3-difluorophenyl)-8a,9,11,12-tetrahydropyrazino[2′,1′:3,4][1,4]oxazepino[5,6,7-de]quinazolin-10(8H)-yl]prop-2-en-1-one] |  |
| 3.47 | 8 | C=CC(=O)N1CCN2c3ncnc4cc(-c5cccc6c5CN(C)CC6)c(Cl)c(c34)OC[C@@H]2C1 [Example 34, 1-[(8aS)-6-Chloro-5-(2-methyl-1,2,3,4-tetrahydroisoquinolin-8-yl)-8a,9,11,12-tetrahydropyrazino[2′,1′:3,4][1,4]oxazepino[5,6,7-de]quinazolin-10(8H)-yl]prop-2-en-1-one] |  |
| 1.58 | 72 | C=CC(=O)N1CCN2c3ncnc4cc(-c5cccc6c5ncn6C)c(Cl)c(c34)OC[C@@H]2C1 [Example 45, 1-[(8aS)-6-Chloro-5-(1-methyl-1H-benzimidazol-4-yl)-8a,9,11,12-tetrahydropyrazino[2′,1′:3,4][1,4]oxazepino[5,6,7-de]quinazolin-10(8H)-yl]prop-2-en-1-one] |  |
| 7.09 | 42 | C=CC(=O)N1CCN2c3ncnc4cc(-c5cccc6ncoc56)c(Cl)c(c34)OC[C@@H]2C1 [Example 58, 1-[(8aS)-5-(1,3-Benzoxazol-7-yl)-6-chloro-8a,9,11,12-tetrahydropyrazino[2′,1′:3,4][1,4]oxazepino[5,6,7-de]quinazolin-10(8H)-yl]prop-2-en-1-one] |  |
| 0.018 | 90 | C=CC(=O)N1CCN2c3nc(NCCN(C)C)nc4cc(-c5c(C)ccc6[nH]ncc56)c(Cl)c(c34)OC[C@@H]2C1 (single isomer, unassigned) [Example 80] |  |
| 2.37 | 68 | C=CC(=O)N1CCN2c3ncnc4cc(-c5c(C)ccc6[nH]ncc56)cc(c34)OC[C@H]2C1 [Example 6, 1-[(8aR)-5-(5-Methyl-1H-indazol-4-yl)-8a,9,11,12-tetrahydropyrazino[2′,1′:3,4]-[1,4]oxazepino[5,6,7-de]quinazolin-10 (8H)-yl]prop-2-en-1-one] |  |
| 2.73 | 49 | C=CC(=O)N1CCN2c3ncnc4cc(-c5cccc6c(C)n(C)nc56)c(Cl)c(c34)OC[C@@H]2C1 [Example 37, 1-[(8aS)-6-Chloro-5-(2,3-dimethyl-2H-indazol-7-yl)-8a,9,11,12-tetrahydropyrazino[2′,1′:3,4][1,4]oxazepino[5,6,7-de]quinazolin-10(8H)-yl]prop-2-en-1-one] |  |
| 0.244 | 30 | C=CC(=O)N1CCN2c3ncnc4cc(-c5c(O)cccc5F)c(Cl)c(c34)OC[C@@H]2C1 (single isomer, unassigned) [Example 10] |  |
| 0.324 | 81 | C=CC(=O)N1CCN2c3ncnc4c(Cl)c(-c5c(C)ccc6[nH]ncc56)cc(c34)OC[C@@H]2C1 [Example 8, 1-[(8aS)-4-Chloro-5-(5-methyl-1H-indazol-4-yl)-8a,9,11,12-tetrahydropyrazino-[2′,1′:3,4][1,4]oxazepino[5,6,7-de]quinazolin-10 (8H)-yl]prop-2-en-1-one] |  |
| 0.437 | 100 | C=CC(=O)N1CCN2c3ncnc4cc(-c5ccccc5F)c(Cl)c(c34)OC[C@@H]2C1 [Example 60, 1-[(8aS)-6-Chloro-5-(2-fluorophenyl)-8a,9,11,12-tetrahydropyrazino[2′,1′:3,4][1,4]oxazepino[5,6,7-de]quinazolin-10(8H)-yl]prop-2-en-1-one] |  |
| 0.097 | 92 | C=CC(=O)N1CCN2c3ncnc4cc(-c5c(O)cccc5F)c(Cl)c(c34)OC[C@@H]2C1 (single isomer, unassigned) [Example 11] |  |

| SMILES | IC50 [1, 3] [µM] | KRasG12C M.S. Binding Mean adduct % [2] [%] | IC50 ([1]; KRasG12C functional assay IC50 value (μM)) [µM] |
| --- | --- | --- | --- |
| C=CC(=O)N1CCN2c3ncnc4cc(-c5c(C)ccc6[nH]ncc56)c(Cl)c(c34)OC[C@H]2C1 [Example 7, 1-[(8aR)-6-Chloro-5-(5-methyl-1H-indazol-4-yl)-8a,9,11,12-tetrahydropyrazino-[2′,1′:3,4][1,4]oxazepino[5,6,7-de]quinazolin-10 (8H)-yl]prop-2-en-1-one] |  | 95 | 0.214 |
| C=CC(=O)N1CCN2c3ncnc4cc(-c5ccccc5O)c(Cl)c(c34)OC[C@@H]2C1 [Example 63, 1-[(8aS)-6-Chloro-5-(2-hydroxyphenyl)-8a,9,11,12-tetrahydropyrazino[2′,1′:3,4][1,4]oxazepino[5,6,7-de]quinazolin-10(8H)-yl]prop-2-en-1-one] | 0.896 | 87 |  |
| C=CC(=O)N1CCN2c3ncnc4cc(-c5cnccc5C#N)c(Cl)c(c34)OC[C@@H]2C1 [Example 67, 3-[(8aS)-10-Acryloyl-6-chloro-8,8a,9,10,11,12-hexahydropyrazino[2′,1′:3,4][1,4]oxazepino[5,6,7-de]quinazolin-5-yl]pyridine-4-carbonitrile] | 6.53 | 17 |  |
